Data: patent publication US8148404B2, “Modulators of CB1 receptors” (7TM Pharma A/S, priority 2006, dated 2012)

Molecular target: T1, human CB1 receptor (Homo sapiens, UniProt P21554)
T1 construct: expressed in transfected cells; membranes used
Test: Cannabinoid Receptor-1 functional assay: inhibition of CP55940-induced [35S]GTPγS binding to membranes of CHO-K1 cells expressing human CB1
Format: biochemical
Conditions: 3 nM CP55940, [35S]GTPγS SPA, hCB1 membranes; read-out: IC50 value for antagonizing a CB1 receptor agonist
Description: Transfection and Cell Culture—The cDNA encoding the human CB1 (Cannabinoid Receptor-1) receptor (GenBank accession number NM_016083) was cloned from a human adipose tissue cDNA library and cloned into the eukaryotic expression vector pcDNA3.1 (Invitrogen).
Chinese Hamster Ovary cells (CHO-K1) stably expressing recombinant human CB1 were generated by transfecting the plasmid containing the coding sequence of the human CB1 receptor in CHO-K1 cells, using lipofectamin, according to the manufacturer instructions. Resistant clones were selected in the presence of 600 μg/ml G418 (Life technology). Stably transfected CHO-K1 cells were maintained in Ham's F-12 culture medium (Invitrogen), supplemented with 10% fetal calf serum (Invitrogen), 100 U/ml penicillin, 100 μg/ml streptomycin (Life Technology), and 600 μg/ml G418.
Functional activities of the above examples of compounds of the invention were assessed in vitro by measuring their ability to inhibit CP55940-induced [^35S]GTPγS binding to membranes prepared from CHO-K1 cells expressing the human CB1 receptor (described in Transfection and Cell Culture). CP55940 is a well known non-selective CB1 and CB2 receptor agonist (e.g Felder et al., 1995, Molecular Pharmacology, (48) 443-50). Membranes were prepared by a standard procedure. Briefly, cells were harvested using 10 mM EDTA and collected by centrifugation. Pelleted cells were homogenized in ice-cold 20 mM Hepes (pH 7.4), 10 mM EDTA and protease inhibitors (Complete protease inhibitor cocktail tablet, Roche) using an Ultra Turrax Homogenizer. The homogenate was centrifuged at 14 000 rpm for 45 min. at 4° C. The resultant pellet was resuspended in the same buffer but with only 0.1 mM EDTA and was again centrifuged at 14 000 rpm for 45 min. at 4° C. The resulting pellet (membranes) was resuspended in 20 mM Hepes (pH 7.4), 0.1 mM EDTA, 2 mM MgCl2 and protease inhibitors and protein concentration was determined by Micro BCA Protein Assay Reagent Kit (Pierce Biotechnology) according to the manufacturer instructions. The [^35S]GTPγS SPA (Scintillation Proximity Assay) binding assay was performed by incubating 5 μg/well hCB1-membranes with 1 nM [^35S]GTPγS (Perkin Elmer—NEG 030H) in the presence of 3 nM of CP55940 and various concentrations of the test compounds at room temperature for 1 hr in 96-well microtiter plates. 0.4 mg/well SPA beads (PVT-WGA; RPNQ0001 Amersham Pharmacia Biotech) were then added and the incubation continued for further 30 min. on an orbital shaker. The assay buffer contained 50 mM HEPES (pH 7.5), 50 mM NaCl, 2.5 mM MgCl2, 0.1% BSA, 1 μM GDP and 100 μg/ml Saponin. Microtiter plates were centrifuged at 1500 rpm for 5 min. and radioactivity was read immediately using a Topcounter (PerkinElmer Life Sciences). Data were analyzed and IC50 values determined by non-linear regression using the Prism software (GraphPad Software, San Diego).

T1 sequence (P21554 whole entry): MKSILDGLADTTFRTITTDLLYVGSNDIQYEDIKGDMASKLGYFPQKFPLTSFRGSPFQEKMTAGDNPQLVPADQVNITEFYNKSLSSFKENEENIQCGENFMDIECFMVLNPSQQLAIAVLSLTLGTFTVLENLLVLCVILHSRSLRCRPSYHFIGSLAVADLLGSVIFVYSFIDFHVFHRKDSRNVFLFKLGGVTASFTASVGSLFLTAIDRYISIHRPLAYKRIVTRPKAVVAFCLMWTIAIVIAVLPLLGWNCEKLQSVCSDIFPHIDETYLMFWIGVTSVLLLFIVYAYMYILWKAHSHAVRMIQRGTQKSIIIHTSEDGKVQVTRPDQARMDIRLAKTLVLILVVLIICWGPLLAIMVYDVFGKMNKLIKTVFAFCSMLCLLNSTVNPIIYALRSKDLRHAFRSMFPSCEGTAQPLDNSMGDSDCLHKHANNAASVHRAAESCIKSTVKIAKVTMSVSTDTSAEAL

Compound | IC50
O=C(O)Cc1c(C(=O)N2CCC(O)(c3ccc(F)c(Cl)c3)CC2)nn(-c2ccccc2Cl)c1-c1ccc(Cl)cc1 [[1.43], [3-[4-(3-Chloro-4-fluoro-phenyl)-4-hydroxy-piperidine-1-carbonyl]-1-(2-chloro-phenyl)-5-(4-chloro-phenyl)-1H-pyrazol-4-yl]-acetic acid] | < 0.3 µM
O=C(O)Cc1c(C(=O)N2CC[C@H](c3ccccc3)[C@@H](O)C2)nn(-c2ccccc2Cl)c1-c1ccc(Cl)cc1 [[1.44], [1-(2-Chloro-phenyl)-5-(4-chloro-phenyl)-3-((3R,4R)-3-hydroxy-4-phenyl-piperidine-1-carbonyl)-1H-pyrazol-4-yl]-acetic acid] | 0.3 to 3 µM
N#Cc1ccc(C2CCN(C(=O)c3nn(-c4ccccc4Cl)c(-c4ccc(Cl)cc4)c3CC(=O)O)CC2)cc1 [[1.45], {1-(2-Chloro-phenyl)-5-(4-chloro-phenyl)-3-[4-(4-cyano-phenyl)-piperidine-1-carbonyl]-1H-pyrazol-4-yl}-acetic acid] | < 0.3 µM
O=C(O)Cc1c(C(=O)N2CCCC2)nn(-c2ccccc2Cl)c1-c1ccc(Cl)cc1 [[1.46], [1-(2-Chloro-phenyl)-5-(4-chloro-phenyl)-3-(pyrrolidine-1-carbonyl)-1H-pyrazol-4-yl]-acetic acid] | 0.3 to 3 µM
O=C(O)Cc1c(C(=O)N2CCCCC2)nn(-c2ccccc2Cl)c1-c1ccc(Cl)cc1 [[1.47], [1-(2-Chloro-phenyl)-5-(4-chloro-phenyl)-3-(piperidine-1-carbonyl)-1H-pyrazol-4-yl]-acetic acid] | 0.3 to 3 µM
O=C(O)Cc1c(C(=O)N2CCOCC2)nn(-c2ccccc2Cl)c1-c1ccc(Cl)cc1 [[1.48], [1-(2-Chloro-phenyl)-5-(4-chloro-phenyl)-3-(morpholine-4-carbonyl)-1H-pyrazol-4-yl]-acetic acid] | 3 to 10 µM
O=C(O)Cc1c(C(=O)N2CCC(OCc3ccccc3)CC2)nn(-c2ccccc2Cl)c1-c1ccc(Cl)cc1 [[1.49], [3-(4-Benzyloxy-piperidine-1-carbonyl)-1-(2-chloro-phenyl)-5-(4-chloro-phenyl)-1H-pyrazol-4-yl]-acetic acid] | < 0.3 µM
O=C(O)Cc1c(C(=O)N2CCC(CO)(c3ccccc3)CC2)nn(-c2ccccc2Cl)c1-c1ccc(Cl)cc1 [[1.50], [1-(2-Chloro-phenyl)-5-(4-chloro-phenyl)-3-(4-hydroxymethyl-4-phenyl-piperidine-1-carbonyl)-1H-pyrazol-4-yl]-acetic acid] | < 0.3 µM
N#Cc1ccccc1C1CCN(C(=O)c2nn(-c3ccccc3Cl)c(-c3ccc(Cl)cc3)c2CC(=O)O)CC1 [[1.51], {1-(2-Chloro-phenyl)-5-(4-chloro-phenyl)-3-[4-(2-cyano-phenyl)-piperidine-1-carbonyl]-1H-pyrazol-4-yl}-acetic acid] | < 0.3 µM
O=C(O)Cc1c(C(=O)N2CCC(c3ccccc3Cl)CC2)nn(-c2ccccc2Cl)c1-c1ccc(Cl)cc1 [[1.54], {1-(2-Chloro-phenyl)-5-(4-chloro-phenyl)-3-[4-(2-chloro-phenyl)-piper-idine-1-carbonyl]-1H-pyrazol-4-yl}-acetic acid] | < 0.3 µM
O=C(O)Cc1c(C(=O)N2CCC(c3cccc(F)c3)C2)nn(-c2ccccc2Cl)c1-c1ccc(Cl)cc1 (centres unmarked) [[1.55], {1-(2-Chloro-phenyl)-5-(4-chloro-phenyl)-3-[3-(3-fluoro-phenyl)-pyrrolidine-1-carbonyl]-1H-pyrazol-4-yl}-acetic acid] | < 0.3 µM
CS(=O)(=O)c1cccc(C2CCN(C(=O)c3nn(-c4ccccc4Cl)c(-c4ccc(Cl)cc4)c3CC(=O)O)CC2)c1 [[1.57], {1-(2-Chloro-phenyl)-5-(4-chloro-phenyl)-3-[4-(3-methylsulfonyl-phenyl)-piperidine-1-carbonyl]-1H-pyrazol-4-yl}-acetic acid] | 0.3 to 3 µM
O=C(O)Cc1c(C(=O)N2CCC(Oc3ccccc3)CC2)nn(-c2ccccc2Cl)c1-c1ccc(Cl)cc1 [[1.58]] | < 0.3 µM
O=C(O)Cc1c(C(=O)N2CCC(Oc3ccc(Cl)cc3)CC2)nn(-c2ccccc2Cl)c1-c1ccc(Cl)cc1 [[1.59], {1-(2-Chloro-phenyl)-5-(4-chloro-phenyl)-3-[4-(4-chlorophenoxy)-piperidine-1-carbonyl]-1H-pyrazol-4-yl}-acetic acid] | < 0.3 µM

Results, then the molecule that gave them:

IC50 | Compound
< 0.3 µM | O=C(O)Cc1c(C(=O)N2CC(Oc3ccc(F)cc3)C2)nn(-c2ccccc2Cl)c1-c1ccc(Cl)cc1 [[1.60], {1-(2-Chloro-phenyl)-5-(4-chloro-phenyl)-3-[3-(4-fluorophenoxy)-azetidine-1-carbonyl]-1H-pyrazol-4-yl}-acetic acid]
< 0.3 µM | O=C(O)Cc1c(C(=O)N2CCC(Oc3ccc(F)c(F)c3)CC2)nn(-c2ccccc2Cl)c1-c1ccc(Cl)cc1 [[1.61], {1-(2-Chloro-phenyl)-5-(4-chloro-phenyl)-3-[4-(3,4-difluorophenoxy)-piperidine-1-carbonyl]-1H-pyrazol-4-yl}-acetic acid]
< 0.3 µM | O=C(O)Cc1c(C(=O)N2CCC(Oc3cccc(F)c3)CC2)nn(-c2ccccc2Cl)c1-c1ccc(Cl)cc1 [[1.62], {1-(2-Chloro-phenyl)-5-(4-chloro-phenyl)-3-[4-(3-fluorophenoxy)-piperidine-1-carbonyl]-1H-pyrazol-4-yl}-acetic acid]
< 0.3 µM | O=C(O)Cc1c(C(=O)N2CCC(Oc3ncc(F)cn3)CC2)nn(-c2ccccc2Cl)c1-c1ccc(Cl)cc1 [[1.63], {1-(2-Chloro-phenyl)-5-(4-chloro-phenyl)-3-[4-(5-fluoropyrimidin-2-oxy)-piperidine-1-carbonyl]-1H-pyrazol-4-yl}-acetic acid]
< 0.3 µM | O=C(O)Cc1c(C(=O)N2CCC(Oc3ccc(F)cc3)C2)nn(-c2ccccc2Cl)c1-c1ccc(Cl)cc1 (centres unmarked) [[1.64], {1-(2-Chloro-phenyl)-5-(4-chloro-phenyl)-3-[3-(4-fluorophenoxy)-pyrrolidine-1-carbonyl]-1H-pyrazol-4-yl}-acetic acid]
< 0.3 µM | Cc1c(C(=O)N2CCC(C(=O)O)(c3ccccc3)CC2)nn(-c2ccccc2Cl)c1-c1ccc(Cl)cc1 [[2.1], 1-[5-(4-Chloro-phenyl)-1-(2-chloro-phenyl)-4-methyl-1H-pyrazole-3-carbonyl]-4-phenyl-piperidine-4-carboxylic acid]
< 0.3 µM | O=C(c1nn(-c2ccccc2Cl)c(-c2ccc(Cl)cc2)c1Cc1nn[nH]n1)N1CCC(O)(c2ccc(F)cc2)CC1 [[3.2], [1-(2-Chloro-phenyl)-5-(4-chloro-phenyl)-4-(2H-tetrazol-5-ylmethyl)-1H-pyrazol-3-yl]-[4-(4-fluoro-phenyl)-4-hydroxy-piperidin-1-yl]-methanone]
< 0.3 µM | O=C(c1nn(-c2ccccc2Cl)c(-c2ccc(Cl)cc2)c1Cc1nn[nH]n1)N1CCC(c2ccc(F)cc2)CC1 [[3.3], [1-(2-Chloro-phenyl)-5-(4-chloro-phenyl)-4-(2H-tetrazol-5-ylmethyl)-1H-pyrazol-3-yl]-[4-(4-fluoro-phenyl)-piperidin-1-yl]-methanone]
< 0.3 µM | O=C(c1nn(-c2ccccc2Cl)c(-c2ccc(Cl)cc2)c1Cc1nn[nH]n1)N1CCC(c2ccccc2F)CC1 [[3.4], [1-(2-Chloro-phenyl)-5-(4-chloro-phenyl)-4-(2H-tetrazol-5-ylmethyl)-1H-pyrazol-3-yl]-[4-(2-fluoro-phenyl)-piperidin-1-yl]-methanone]
